According to ChEMBL document CHEMBL1909046, “DrugMatrix in vitro pharmacology data”:

Assays:
D(4) dopamine receptor = target: T1, D(4) dopamine receptor (Homo sapiens, UniProt P21917); experiment: DRUGMATRIX: Dopamine D4.2 radioligand binding (ligand: [3H] Spiperone); assay type: cell membranes, CHO-K1, Membrane; conditions: Not Active = under 50% inhibition at 10 µM
T1 sequence (P21917 whole entry): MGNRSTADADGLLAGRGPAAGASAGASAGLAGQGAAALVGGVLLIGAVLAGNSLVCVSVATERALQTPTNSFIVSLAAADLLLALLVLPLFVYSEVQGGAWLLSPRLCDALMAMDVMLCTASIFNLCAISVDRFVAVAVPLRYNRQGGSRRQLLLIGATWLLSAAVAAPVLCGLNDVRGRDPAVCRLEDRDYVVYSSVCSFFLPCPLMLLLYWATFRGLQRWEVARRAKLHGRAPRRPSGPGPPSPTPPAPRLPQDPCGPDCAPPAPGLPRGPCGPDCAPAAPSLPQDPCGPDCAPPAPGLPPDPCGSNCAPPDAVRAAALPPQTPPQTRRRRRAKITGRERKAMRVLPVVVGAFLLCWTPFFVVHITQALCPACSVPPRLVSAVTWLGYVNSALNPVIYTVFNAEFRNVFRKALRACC

[1] = target: 5-hydroxytryptamine receptor 6 (Homo sapiens, UniProt P50406); assay type: cell membranes, HeLa, Membrane; further: in other assays of this panel Not Active means under 50% inhibition at 10 µM
Vasopressin V1a receptor = Vasopressin V1a receptor (Homo sapiens, UniProt P37288); assay type: cell membranes, Membrane; conditions: hek293; further: in other assays of this panel Not Active means under 50% inhibition at 10 µM
Insulin receptor = Insulin receptor (Rattus norvegicus, UniProt P15127); assay type: cell membranes, Wistar, Liver, Membrane; further: in other assays of this panel Not Active means under 50% inhibition at 10 µM
[2] = target: Tyrosine-protein kinase Lck (Homo sapiens, UniProt P06239); experiment: DRUGMATRIX: Protein Tyrosine Kinase, LCK enzyme inhibition (substrate: Poly(Glu:Tyr)); assay type: cell-based, Insect cells; conditions: insect cells; Not Active = under 50% inhibition at 10 µM
[3] = target: T2, Type-2 angiotensin II receptor (Homo sapiens, UniProt P50052); assay type: cell-based; conditions: cho-k1; further: in other assays of this panel Not Active means under 50% inhibition at 10 µM
T2 sequence (P50052 whole entry): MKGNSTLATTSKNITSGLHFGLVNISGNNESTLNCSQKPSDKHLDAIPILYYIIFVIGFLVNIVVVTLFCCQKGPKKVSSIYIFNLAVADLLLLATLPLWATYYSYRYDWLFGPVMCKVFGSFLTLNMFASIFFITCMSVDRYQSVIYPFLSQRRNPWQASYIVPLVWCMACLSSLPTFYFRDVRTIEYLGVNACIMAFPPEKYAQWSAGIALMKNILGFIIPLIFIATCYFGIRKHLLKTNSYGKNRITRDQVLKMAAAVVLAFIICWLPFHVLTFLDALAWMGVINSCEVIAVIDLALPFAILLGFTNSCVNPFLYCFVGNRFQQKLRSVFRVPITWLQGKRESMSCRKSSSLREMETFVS

[4] = target: T3, Vasoactive intestinal polypeptide receptor 1 (Homo sapiens, UniProt P32241); assay type: cell membranes, Membrane; conditions: ht-29; further: in other assays of this panel Not Active means under 50% inhibition at 10 µM
T3 sequence (P32241 whole entry): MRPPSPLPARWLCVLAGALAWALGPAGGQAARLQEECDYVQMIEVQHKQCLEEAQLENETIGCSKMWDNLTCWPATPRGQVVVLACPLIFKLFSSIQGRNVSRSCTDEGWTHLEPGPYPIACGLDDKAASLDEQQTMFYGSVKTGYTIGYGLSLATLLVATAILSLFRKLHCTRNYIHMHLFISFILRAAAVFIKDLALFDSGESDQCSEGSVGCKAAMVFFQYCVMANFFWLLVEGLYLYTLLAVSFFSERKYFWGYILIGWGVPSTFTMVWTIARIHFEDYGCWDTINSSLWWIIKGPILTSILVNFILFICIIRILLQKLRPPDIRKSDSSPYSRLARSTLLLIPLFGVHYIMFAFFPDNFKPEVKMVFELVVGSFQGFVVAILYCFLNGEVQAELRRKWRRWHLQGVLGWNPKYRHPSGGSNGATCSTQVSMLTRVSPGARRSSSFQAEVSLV

5-hydroxytryptamine receptor 6, sequence (P50406 whole entry): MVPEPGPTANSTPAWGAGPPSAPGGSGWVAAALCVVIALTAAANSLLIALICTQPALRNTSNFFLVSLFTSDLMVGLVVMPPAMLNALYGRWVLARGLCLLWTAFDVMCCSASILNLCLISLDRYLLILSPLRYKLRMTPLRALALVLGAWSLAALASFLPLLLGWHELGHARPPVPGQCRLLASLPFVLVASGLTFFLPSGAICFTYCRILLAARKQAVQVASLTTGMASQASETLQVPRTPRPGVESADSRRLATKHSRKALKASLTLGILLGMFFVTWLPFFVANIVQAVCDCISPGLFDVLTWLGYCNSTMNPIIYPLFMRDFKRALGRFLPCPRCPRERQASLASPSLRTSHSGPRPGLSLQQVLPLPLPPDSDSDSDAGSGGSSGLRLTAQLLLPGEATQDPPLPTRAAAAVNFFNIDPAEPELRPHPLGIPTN
Vasopressin V1a receptor, sequence (P37288 whole entry): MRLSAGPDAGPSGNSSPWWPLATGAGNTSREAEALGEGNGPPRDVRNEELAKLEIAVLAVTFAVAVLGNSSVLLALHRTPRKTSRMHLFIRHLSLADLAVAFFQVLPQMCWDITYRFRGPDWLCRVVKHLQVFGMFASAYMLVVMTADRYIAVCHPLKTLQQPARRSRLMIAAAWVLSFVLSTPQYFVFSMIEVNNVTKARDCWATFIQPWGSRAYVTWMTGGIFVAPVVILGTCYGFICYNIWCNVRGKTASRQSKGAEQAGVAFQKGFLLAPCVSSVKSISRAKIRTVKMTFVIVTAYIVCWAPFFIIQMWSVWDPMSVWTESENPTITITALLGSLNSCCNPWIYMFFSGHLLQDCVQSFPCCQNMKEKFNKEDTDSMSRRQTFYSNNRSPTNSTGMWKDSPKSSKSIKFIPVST
Insulin receptor, sequence (P15127 27-759 limits assumed): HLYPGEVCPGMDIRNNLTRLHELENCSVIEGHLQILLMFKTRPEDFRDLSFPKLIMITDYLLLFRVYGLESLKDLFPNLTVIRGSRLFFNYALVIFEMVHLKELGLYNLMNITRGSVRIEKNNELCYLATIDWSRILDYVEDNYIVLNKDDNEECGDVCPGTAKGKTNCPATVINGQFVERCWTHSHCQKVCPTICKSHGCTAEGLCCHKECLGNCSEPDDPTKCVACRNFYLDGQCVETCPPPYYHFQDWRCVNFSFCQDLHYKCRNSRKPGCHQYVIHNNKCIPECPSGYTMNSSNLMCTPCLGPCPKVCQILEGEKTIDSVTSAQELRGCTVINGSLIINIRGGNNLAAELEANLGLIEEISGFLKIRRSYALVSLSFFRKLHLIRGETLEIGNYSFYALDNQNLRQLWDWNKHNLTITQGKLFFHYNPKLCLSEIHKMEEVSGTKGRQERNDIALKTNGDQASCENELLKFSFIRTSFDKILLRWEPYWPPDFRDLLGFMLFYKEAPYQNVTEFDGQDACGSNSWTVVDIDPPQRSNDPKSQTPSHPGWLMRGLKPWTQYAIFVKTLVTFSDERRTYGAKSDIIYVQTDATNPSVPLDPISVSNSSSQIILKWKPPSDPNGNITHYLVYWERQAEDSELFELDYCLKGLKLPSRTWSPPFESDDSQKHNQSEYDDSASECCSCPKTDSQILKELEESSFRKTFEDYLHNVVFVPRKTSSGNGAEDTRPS
Insulin receptor, sequence (P15127 764-1383 limits assumed): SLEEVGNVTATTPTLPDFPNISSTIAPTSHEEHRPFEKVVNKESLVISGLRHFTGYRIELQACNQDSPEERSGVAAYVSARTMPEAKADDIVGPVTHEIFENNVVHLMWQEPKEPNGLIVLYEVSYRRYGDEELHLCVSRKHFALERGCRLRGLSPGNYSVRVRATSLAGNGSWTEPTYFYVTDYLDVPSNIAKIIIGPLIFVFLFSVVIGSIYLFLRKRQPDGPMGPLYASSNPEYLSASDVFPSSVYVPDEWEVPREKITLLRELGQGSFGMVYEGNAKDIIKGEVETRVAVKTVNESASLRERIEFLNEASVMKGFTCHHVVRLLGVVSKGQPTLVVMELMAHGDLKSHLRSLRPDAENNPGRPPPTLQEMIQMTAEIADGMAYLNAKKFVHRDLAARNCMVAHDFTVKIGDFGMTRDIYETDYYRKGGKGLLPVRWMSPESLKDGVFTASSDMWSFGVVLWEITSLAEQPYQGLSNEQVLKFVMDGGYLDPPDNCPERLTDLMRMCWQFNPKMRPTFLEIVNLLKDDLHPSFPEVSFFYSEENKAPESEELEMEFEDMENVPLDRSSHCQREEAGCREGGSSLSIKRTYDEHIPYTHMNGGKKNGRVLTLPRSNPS
Tyrosine-protein kinase Lck, sequence (P06239 whole entry): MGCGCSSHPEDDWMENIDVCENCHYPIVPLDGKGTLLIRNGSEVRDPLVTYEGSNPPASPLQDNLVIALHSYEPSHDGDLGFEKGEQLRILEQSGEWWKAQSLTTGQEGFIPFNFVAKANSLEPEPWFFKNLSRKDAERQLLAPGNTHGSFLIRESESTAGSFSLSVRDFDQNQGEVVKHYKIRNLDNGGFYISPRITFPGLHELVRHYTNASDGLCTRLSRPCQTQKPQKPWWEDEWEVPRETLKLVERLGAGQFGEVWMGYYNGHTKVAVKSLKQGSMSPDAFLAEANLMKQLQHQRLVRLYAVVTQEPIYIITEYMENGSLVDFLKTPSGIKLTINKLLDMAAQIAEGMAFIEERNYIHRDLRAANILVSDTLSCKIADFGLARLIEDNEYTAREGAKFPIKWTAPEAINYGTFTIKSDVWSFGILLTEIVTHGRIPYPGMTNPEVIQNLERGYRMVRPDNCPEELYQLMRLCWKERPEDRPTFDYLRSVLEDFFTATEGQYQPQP

C#C[C@]1(O)CC[C@H]2[C@@H]3[C@H](C)CC4=C(CCC(=O)C4)[C@H]3CC[C@@]21C [TIBOLONE]
Not Active: IC50 (D(4) dopamine receptor; cho-k1) | IC50 ([1]; hela) | IC50 (Vasopressin V1a receptor) | IC50 (Insulin receptor) | IC50 [2] | IC50 [3] | IC50 [4]

CN1C(=O)OC(C)(C)C1=O [TRIMETHADIONE]
Not Active: IC50 (D(4) dopamine receptor; cho-k1) | IC50 ([1]; hela) | IC50 (Vasopressin V1a receptor) | IC50 (Insulin receptor) | IC50 [2] | IC50 [3] | IC50 [4]

OC[C@@H](O)[C@@H](O)[C@H](O)[C@H](O)CO [MANNITOL]
Not Active: IC50 (D(4) dopamine receptor; cho-k1) | IC50 ([1]; hela) | IC50 (Vasopressin V1a receptor) | IC50 (Insulin receptor) | IC50 [2] | IC50 [3] | IC50 [4]

CCN(CC)C(=S)SSC(=S)N(CC)CC
3.15 µM: IC50 (D(4) dopamine receptor; read-out: IC50)
Not Active: IC50 (Vasopressin V1a receptor) | IC50 (Insulin receptor) | IC50 [2] | IC50 [3] | IC50 [4]
16 µM: IC50 ([1]; read-out: IC50)
7.43 µM: Ki ([1]; read-out: Ki)
1.1 µM: Ki (D(4) dopamine receptor; read-out: Ki)

O=C(O)c1cc(/N=N/c2ccc(S(=O)(=O)Nc3ccccn3)cc2)ccc1O [SULFASALAZINE]
Not Active: IC50 (D(4) dopamine receptor; cho-k1) | IC50 ([1]; hela) | IC50 (Vasopressin V1a receptor) | IC50 (Insulin receptor) | IC50 [2] | IC50 [3] | IC50 [4]

O=C(c1ccccc1)c1ccc2n1CCC2C(=O)O (stereo not given) [KETOROLAC]
Not Active: IC50 (D(4) dopamine receptor; cho-k1) | IC50 ([1]; hela) | IC50 (Vasopressin V1a receptor) | IC50 (Insulin receptor) | IC50 [2] | IC50 [3] | IC50 [4]

CC[C@H](C)[C@@H](CO[C@@H](Cc1ccccc1)C(=O)N[C@@H](CCS(C)(=O)=O)C(=O)OC(C)C)NC[C@@H](N)CS
Not Active: IC50 (D(4) dopamine receptor; cho-k1) | IC50 ([1]; hela) | IC50 (Vasopressin V1a receptor) | IC50 (Insulin receptor) | IC50 [2] | IC50 [3] | IC50 [4]

CC(C)(C)NC[C@H](O)COc1cccc2c1CCCC2=O [LEVOBUNOLOL]
Not Active: IC50 (D(4) dopamine receptor; cho-k1) | IC50 ([1]; hela) | IC50 (Vasopressin V1a receptor) | IC50 (Insulin receptor) | IC50 [2] | IC50 [3] | IC50 [4]

C[N+]1(C)[C@@H]2C[C@@H](OC(=O)[C@H](CO)c3ccccc3)C[C@H]1[C@@H]1O[C@@H]12.[Br-] [METHSCOPOLAMINE BROMIDE]
Not Active: IC50 (D(4) dopamine receptor; cho-k1) | IC50 ([1]; hela) | IC50 (Vasopressin V1a receptor) | IC50 (Insulin receptor) | IC50 [2] | IC50 [3] | IC50 [4]

CO[C@@H]1[C@@H](OC)[C@H](C)[C@@](O)(CC(=O)O)O[C@H]1[C@H](C)[C@H]1O[C@@]2(CC[C@@](C)([C@H]3CC[C@@](C)([C@@H]4O[C@@H]([C@H]5O[C@](C)(O)[C@H](C)C[C@@H]5C)C[C@@H]4O[C@@H]4C[C@H](OC)[C@@H](OC)[C@H](C)O4)O3)O2)C[C@H](O)[C@H]1C.N [MADURAMICIN]
Not Active: IC50 (D(4) dopamine receptor; cho-k1) | IC50 ([1]; hela) | IC50 (Vasopressin V1a receptor) | IC50 (Insulin receptor) | IC50 [2] | IC50 [3] | IC50 [4]

Cc1nnc(NS(=O)(=O)c2ccc(N)cc2)s1 [SULFAMETHIZOLE]
Not Active: IC50 (D(4) dopamine receptor; cho-k1) | IC50 ([1]; hela) | IC50 (Vasopressin V1a receptor) | IC50 (Insulin receptor) | IC50 [2] | IC50 [3] | IC50 [4]

Cc1cnc(NC(=O)C2=C(O)c3ccccc3S(=O)(=O)N2C)s1 [MELOXICAM]
Not Active: IC50 (D(4) dopamine receptor; cho-k1) | IC50 ([1]; hela) | IC50 (Vasopressin V1a receptor) | IC50 (Insulin receptor) | IC50 [2] | IC50 [3] | IC50 [4]

CC1=C(/C=C/C(C)=C/C=C/C(C)=C/C(=O)O)C(C)(C)CCC1 [TRETINOIN]
Not Active: IC50 (D(4) dopamine receptor; cho-k1) | IC50 ([1]; hela) | IC50 (Vasopressin V1a receptor) | IC50 (Insulin receptor) | IC50 [2] | IC50 [3] | IC50 [4]

Cc1ccc(S(=O)(=O)NC(=O)NN2CCCCCC2)cc1 [TOLAZAMIDE]
Not Active: IC50 (D(4) dopamine receptor; cho-k1) | IC50 ([1]; hela) | IC50 (Vasopressin V1a receptor) | IC50 (Insulin receptor) | IC50 [2] | IC50 [3] | IC50 [4]
